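Five compound concentrations were applied to cells in 96-well plates for 48 hours; endpoints were derived by simple linear interpolation of the resulting dose-response curve. TGI: concentration producing complete growth inhibition.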

Among the test systems are OVCAR-4 ovarian; HCC-2998 colon; MDA-MB-435; MALME-3M melanoma; RPMI-8226 leukemia; SF-539 CNS; MOLT-4 leukemia; ACHN renal; DU-145 prostate; A549 NSCLC.
What all share (experiment): NCI tumour cell line growth inhibition, 48 h

For `O=C1c2ccccc2CC12Cc1ccc3c(c1C2=O)CCCC3` (stereo unspecified), the TGI in the test with OVCAR-4 ovarian, in the test on HCC-2998 colon, in the test on MDA-MB-435, in the test with MALME-3M melanoma, in the test with RPMI-8226 leukemia and with SF-539 CNS was greater than 100 µM each time. For the same molecule, the TGI is 12.5 µM with MOLT-4 leukemia, greater than 100 µM with ACHN renal, greater than 100 µM with DU-145 prostate and greater than 100 µM in the test on A549 NSCLC.

On to `Cc1ccc2c(c1)CC1(Cc3cc(C)ccc3C1=O)C2=O`, for which the TGI in the test with OVCAR-4 ovarian, in the test on HCC-2998 colon, with MDA-MB-435, in the test with MALME-3M melanoma, in the test on RPMI-8226 leukemia and in the test with SF-539 CNS was greater than 100 µM in each case. Moreover, the TGI with MOLT-4 leukemia, with ACHN renal, in the test on DU-145 prostate and in the test on A549 NSCLC was greater than 100 µM each time.

As to `NS(=O)(=O)c1ccc(Nc2c3ccccc3nc3c(C(=O)NC(CO)(CO)CO)cccc23)cc1`, the TGI with OVCAR-4 ovarian is 0.193 µM; in the test on HCC-2998 colon, 0.39 µM; in the test on MDA-MB-435, 0.558 µM; with MALME-3M melanoma, 0.272 µM; in the test with RPMI-8226 leukemia, 0.683 µM; in the test on SF-539 CNS it was 0.407 µM. Besides, the TGI with MOLT-4 leukemia was 0.195 µM; with ACHN renal, 0.508 µM; with DU-145 prostate, 0.812 µM; in the test with A549 NSCLC, 0.314 µM.

With `CC(C)C1OC(=O)C(Cc2ccccc2)N(C)C(=O)C(C(C)C)OC(=O)C(Cc2ccccc2)N(C)C(=O)C(C(C)C)OC(=O)C(Cc2ccccc2)N(C)C1=O` (stereo unspecified), the TGI in the test on OVCAR-4 ovarian amounted to 1.18 µM; in the test with HCC-2998 colon, 1.99 µM; with MDA-MB-435, 1.41 µM; with MALME-3M melanoma it was 1.29 µM; in the test on RPMI-8226 leukemia, 1.31 µM; in the test on SF-539 CNS, 3.47 µM. Further, the TGI was 2.33 µM with MOLT-4 leukemia, 1.64 µM in the test with ACHN renal, 3.03 µM in the test on DU-145 prostate and 1.87 µM with A549 NSCLC.

`COC(=O)c1sc2c(c1C(=O)OC)C(=Nc1ccc(OC)cc1)SC2=Nc1ccc(OC)cc1`: the TGI in the test on OVCAR-4 ovarian was 2.83 µM; in the test on HCC-2998 colon, 3.17 µM; in the test with MDA-MB-435, 1.94 µM; in the test with MALME-3M melanoma, 3.65 µM; with SF-539 CNS it was 0.889 µM; in the test with MOLT-4 leukemia it was 0.494 µM. In addition, the results for the TGI in the test on ACHN renal, in the test with DU-145 prostate and in the test with A549 NSCLC were 2.51 µM, 1.69 µM and 2.68 µM, respectively.

For `CSC(SC)=C(C#N)C(=O)Nc1ccc(Cl)cc1`, the TGI in the test on OVCAR-4 ovarian is greater than 100 µM; in the test on HCC-2998 colon, greater than 100 µM; in the test with MDA-MB-435, greater than 100 µM; in the test with MALME-3M melanoma it was greater than 100 µM; in the test with RPMI-8226 leukemia, greater than 100 µM; with SF-539 CNS, 67.7 µM. Moreover, the TGI is 89.6 µM in the test on MOLT-4 leukemia, greater than 100 µM in the test with DU-145 prostate and greater than 100 µM in the test on A549 NSCLC.

In the case of `O=[N+]([O-])C(/C=C(\Cl)[N+](=O)[O-])=C(N1CCOCC1)N1CCOCC1`, the TGI with OVCAR-4 ovarian is 53.9 µM; in the test with HCC-2998 colon, 43 µM; in the test with MDA-MB-435 it was greater than 100 µM; in the test on MALME-3M melanoma, 70.3 µM; with RPMI-8226 leukemia, 54.6 µM; with SF-539 CNS, 39.9 µM. For the same molecule, the TGI in the test with MOLT-4 leukemia was greater than 100 µM; with ACHN renal it was greater than 100 µM; with DU-145 prostate it was greater than 100 µM; with A549 NSCLC, 39.3 µM.

As for `NC1CC(=O)c2c(I)sc(I)c21` (stereo unspecified), the TGI with OVCAR-4 ovarian was 38.4 µM; in the test on HCC-2998 colon, 44.2 µM; in the test with MDA-MB-435, 38.7 µM; in the test on MALME-3M melanoma it was 29.8 µM; in the test with RPMI-8226 leukemia, 29.9 µM; with SF-539 CNS it was 44.8 µM. For the same molecule, the TGI in the test with MOLT-4 leukemia was 44.8 µM; with ACHN renal, 42.1 µM; in the test with DU-145 prostate, greater than 55.1 µM; in the test with A549 NSCLC, greater than 79.5 µM.

For `O=C1c2cccc3cc([N+](=O)[O-])cc(c23)C(=O)N1c1ccc(OCCN2CCCC2)cc1`, the TGI with OVCAR-4 ovarian was 67.2 µM; in the test on HCC-2998 colon it was 33.5 µM; in the test with MDA-MB-435, 45.1 µM; with MALME-3M melanoma, 30.9 µM; in the test with SF-539 CNS, 29.5 µM; in the test with MOLT-4 leukemia it was 56.7 µM. Besides, the TGI in the test on ACHN renal is 28.1 µM; with DU-145 prostate it was greater than 100 µM; in the test on A549 NSCLC it was 20.6 µM.

In the case of `N#CCCN(C(=O)Nc1ccc(NC(=O)N(CCC#N)c2ccccc2)cc1)c1ccccc1`, the TGI in the test on OVCAR-4 ovarian, in the test with HCC-2998 colon, in the test on MDA-MB-435, in the test on MALME-3M melanoma, in the test on RPMI-8226 leukemia and in the test on MOLT-4 leukemia was greater than 100 µM each time. For the same molecule, the TGI with ACHN renal, in the test on DU-145 prostate and in the test with A549 NSCLC was greater than 100 µM throughout.

In the case of `Cc1nc2nnc(CCCCCCCCc3nnc4nc(C)[nH]n34)n2[nH]1`, the TGI in the test on OVCAR-4 ovarian, in the test on HCC-2998 colon, in the test on MDA-MB-435, in the test with MALME-3M melanoma, in the test on SF-539 CNS and in the test on MOLT-4 leukemia was greater than 100 µM each time. Further, the TGI in the test on ACHN renal, in the test with DU-145 prostate and in the test on A549 NSCLC was greater than 100 µM in each case.

Regarding `O=C(O)c1ccccc1Sc1ccc(C=C2NC(=S)N(c3ccccc3)C2=O)s1`, the TGI was 59.8 µM with OVCAR-4 ovarian; greater than 100 µM in the test on HCC-2998 colon; greater than 100 µM with MDA-MB-435; greater than 100 µM in the test with MALME-3M melanoma; greater than 100 µM in the test on RPMI-8226 leukemia; greater than 100 µM with MOLT-4 leukemia. Also, the TGI with ACHN renal and in the test with DU-145 prostate was greater than 100 µM each time.

`CC(NC(CC12CC3CC(CC(C3)C1)C2)C(N)=O)c1ccccc1` (stereo unspecified): the TGI in the test on OVCAR-4 ovarian is 98.5 µM; in the test with HCC-2998 colon, 40.7 µM; in the test on MDA-MB-435 it was 41.1 µM; in the test on MALME-3M melanoma it was 34.3 µM; with RPMI-8226 leukemia, 40.5 µM; in the test with MOLT-4 leukemia, 39.6 µM. The results for the TGI in the test on ACHN renal, in the test with DU-145 prostate and with A549 NSCLC were 57.6 µM, greater than 100 µM and greater than 100 µM, respectively.

For `c1ccc(-c2cc(-c3ccccc3)nc(-c3ccncc3)c2)cc1`, the TGI with OVCAR-4 ovarian, in the test with HCC-2998 colon, in the test with MDA-MB-435, with MALME-3M melanoma, in the test with RPMI-8226 leukemia and with MOLT-4 leukemia was greater than 100 µM in each case. Further, the TGI with ACHN renal, in the test with DU-145 prostate and in the test on A549 NSCLC was greater than 100 µM in each case.
